These results are taken from a melting point compilation (Tetko et al.; mined from patent text by program, amines drawn as free bases though some values may be those of a salt).

SMILES strings stand for the structures.

As a reminder, the melting point is the temperature, or range, at which the solid turns liquid. In the case of `CC(=O)N1CCN(C(=O)c2cc3ccnc(Cl)c3[nH]2)CC1`, the melting point is 179 to 184 °C. Then `CC(C)NC(=O)NCCSCc1ccc(CN(C)C)o1`, with 65 to 67 °C; and `Clc1c2ccccc2nc2c1sc1ccccc12`, with 158 to 159 °C; and `CCOC(=O)Cc1ccc(NC(=O)/C=C/c2cnn(C)c2-c2ccc(F)cc2)cc1`, with 177 to 178 °C. `CC(=O)Nc1nc(NC(C)=O)nc(-c2ccc(Oc3ccccc3)cc2)n1`: the melting point was 243 to 245 °C.

For the compound `CC(=O)C(=NO)C(N)=O`, the melting point lay in the range of 96 to 97 °C. On to `CC(=Cc1ccc([N+](=O)[O-])cc1)C(=O)Oc1ccc(Cl)cc1`, for which the melting point is 111 to 112 °C.

`Cc1cncn1-c1ccc(O)cc1` showed a melting point of 256 °C. The figure for `Cc1cc(Nc2nc(Cl)nc(Nc3cc(C)c(O)c(C(C)(C)C)c3)n2)cc(C(C)(C)C)c1O` is 214 °C; for `CC(=O)OCc1ccc(N(c2ccccc2)c2ccc(C=O)cc2)cc1` it is 86 to 89 °C. The figure for `CN1C2CCCC1CC(NC(=O)c1cccc3oc(-c4ccc(F)cc4)nc13)C2` (stereo not drawn) is 197 to 199 °C; for `Cc1cccc2c1C(=O)NS2(=O)=O` it is 224 to 226 °C; for `O=C(Oc1ccc([N+](=O)[O-])cc1)c1ccc2[nH]cc(CCN3C(=O)c4ccccc4C3=O)c2c1` it is 248 to 251 °C.

The compound `Cc1c(-c2ccc(OCc3ccccc3)cc2)n(C(=O)c2ccc(OCCN3CCCCC3)cc2)c2ccc(OCc3ccccc3)cc12` showed a melting point of 48 to 51 °C. `OC1CSC(Oc2cncc(-c3cccnc3F)c2)C(O)C1O` (stereo not drawn) displayed a melting point of 193 to 196 °C.

On to `CCOC(=S)C(C)Cc1ccc(OCC(=O)O)cc1` (stereo not drawn), for which the melting point was 77 to 78 °C. Then `Cn1cc2c(C3C(=O)Nc4ccc(Br)cc43)nc(NCCc3cccnc3)nc2n1` (stereo not drawn), with 314 to 317 °C; and `CN1CCN(c2cccc3c2C[C@H](NC(=O)c2cccc(OS(C)(=O)=O)c2)CC3)CC1`, with 159 to 160 °C. The figure for `C#CCN=C(NC#N)SC` is 160 to 164 °C; for `COc1cc(I)cc(OC)c1SC` it is 103 to 104 °C. Compound `CC1=CC2C(=O)NC(=O)C2(Cc2ccccc2)C=C1` (stereo not drawn) showed a melting point of 128 to 130 °C. The figure for `Cc1ccc(Nc2nc(Cl)nc(Cl)n2)cc1F` is 130 °C; for `Cc1cc(-n2ccnc2)c2cccc(OCc3c(Cl)ccc(S(=O)(=O)N4CCC[C@H]4C(=O)NCC4CCN(CCO)CC4)c3Cl)c2n1` it is 160 °C. `CCCOc1cc(CCCOc2c(CC(=O)O)cccc2OC)n(Cc2ccccc2OC)n1` gave a melting point of 79 to 82 °C. `CCC(=O)C1=C(O)CC(c2cccc(Oc3ccc(S(C)(=O)=O)cc3)c2)CC1=O` (stereo not drawn) gave a melting point of 136 to 138 °C.

On to `COC(=O)C1CC(C(=O)OC)NC(=O)N1` (stereo not drawn), for which the melting point was 178 to 179 °C.

`CC(C)C(=O)N1C2=NC(C)(C)N(C)C(=O)N2c2ccccc21` displayed a melting point of 99 to 102 °C.

As for `O=c1c2ccc(OCc3ccccc3)cc2[nH]c2c([N+](=O)[O-])ccc(Cl)c12`, the melting point lay within 198 to 202 °C. Then `Cc1ccc(-c2ccc(/C=C/C(=O)O)s2)cc1`, with 223 to 225 °C; and `CC1CC2CC(C)(CN2)C1(C)C(=O)C=CCO` (stereo not drawn), with 72 to 75 °C. The compound `Cc1nc(CO)c2n1-c1ccc(Cl)cc1C(c1ccccc1F)=NC2` showed a melting point of 233 to 235 °C. Then `COc1ccc2c(c1)CN(C#N)CC2c1cc(OC)c(OC)c(OC)c1` (stereo not drawn), with 113 to 116 °C; and `COC(=O)c1cc(OCC=C(Cl)Cl)cc(Cl)c1OC`, with 103 °C; and `Cc1c(-c2ccccc2)oc(=O)n1C1CCN(CCc2ccccc2)CC1`, with 144 °C. The figure for `Clc1ccc(-c2cn3c(n2)CCCC3)c(Cl)c1` is 134 to 136 °C; for `Fc1ccc(CNc2nc(OCC(F)(F)F)nc(-c3ccccc3)n2)cc1` it is 170 to 172 °C; for `COc1ccc(CNC(=O)c2cccnc2N)cc1` it is 165 to 166 °C.

The compound `Nc1nc(C(=NOCC(=O)NOCc2ccccc2)C(=O)O)cs1` returned a melting point of 170 to 172 °C. `COc1cc(Cc2cnc(N)nc2N)ccc1N` yielded a melting point of 210 to 212 °C. Consider `COc1ccc(C=CC(=O)O)cc1-c1cc2c(cc1OCCCO)C(C)(C)CCC2(C)C`, for which the melting point was 198 to 200 °C. Compound `O=C(O)c1ccc(-c2ccc3nnn(Cc4ccc5ncccc5c4)c3n2)cc1F` yielded a melting point of 254 to 257 °C.

`CC(C)C(=O)N1CCNC1=Nc1ccc(Cl)cc1Cl` yielded a melting point of 147 to 148 °C. Regarding `O=C(O)C1CCc2ccc3[nH]ccc3c21` (stereo not drawn), the melting point was 166 to 167 °C. The figure for `C=CCN(C)C/C=C/COc1cc2c(cc1F)c(-c1ccc(Br)cc1)nn2C` is 135 to 137 °C; for `O=C1N(Cc2ccc(-c3ccccc3C(F)(F)F)o2)c2ccccc2C12COc1cc3c(cc12)OCO3` (stereo not drawn) it is 124 to 126 °C. The figure for `COc1cc2c(Nc3ccc(C)c(OC(C)=O)c3)ncnc2cc1OCc1ccsc1` is 201 to 203 °C; for `COc1ccc2c(c1)c(/C=C/C(=O)c1ccncc1)cn2C` it is 178 to 182 °C; for `O=C1OC(=O)c2ccc3c4cccc5cccc(c6ccc1c2c63)c54` it is greater than 260 °C.

Compound `CCOC(=O)c1c(C(=O)OCC)c(-c2ccc(OC(C)C)c(OC(C)C)c2)c2cc3c(cc2c1O)OCO3` came in with a melting point of 123 to 124 °C. Then `CC(C)N(Cc1ccc(C(F)(F)F)cc1)C(=O)C(Cl)Cl`, with 92 to 93 °C; and `Nc1cc(Cl)c(N2CCC(N3CCOCC3)CC2)c(Cl)c1`, with 144 to 146 °C.

Consider `O=C1CC(Cl)C(=O)N1c1ccccc1` (stereo not drawn), for which the melting point lay in the range of 117 to 118 °C. Then `CN1CCN(c2cccc3c2ccn3S(=O)(=O)c2ccc(F)cc2)CC1`, with 151 to 152 °C; and `COc1ccc(-c2cc(C(=O)NCc3ccccc3)c(=O)n(C)n2)cc1`, with 145 to 146 °C.

Compound `C[C@@H](NC(=O)[C@@H](NC(=O)OCc1ccccc1)C(Cc1ccccc1)C(=O)O)C(=O)O` (stereo partly drawn) yielded a melting point of 158 to 159 °C. Then `O=C(CNc1ccc2[nH]c(=O)oc2c1)N1CCC(Oc2ccccc2)CC1`, with 220 to 223 °C; and `CCCCCCCCCCCCCCOc1cc(OCCCCCCc2cccc(OCc3ccccc3)c2OCc2ccccc2)cc(C(=O)OC)c1`, with 56 to 58 °C. On to `CC(=O)c1ccc2c(c1)c1cc(-c3ccc(Cl)cc3Cl)c(=O)n(C)c1n2C`, for which the melting point lay within 254 to 255 °C. In turn, `COc1ccc(Cc2nnc(N[C@H]3CC[C@H](C(C)C)CC3)c3ccccc23)cn1` registered a melting point of 124 to 125 °C.

In turn, `CC(C)(C)OC(=O)NC1COCCCC=CC2CC2(C(=O)NS(=O)(=O)C2CC2)NC(=O)C2CC(OC(=O)N3CCc4ccccc43)CN2C1=O` (stereo not drawn) displayed a melting point of 128 to 130 °C. Then `O=C(Cc1cccc(C(F)(F)F)c1)Cn1cncn1`, with 85 to 87 °C.

Regarding `CCOC(=O)C1=NOC2(CCC(C(C)(C)CC)CC2)C1` (stereo not drawn), the melting point was 82 to 87 °C. Take `COc1ccc(-c2cnc(NS(=O)(=O)Cc3ccccc3)c(Cc3ccccc3)n2)cc1`: the melting point is 213 to 215 °C.
